Values quoted from earlier work, collected in patent US8957218B2, “2-oxo-1-imidazolidinyl imidazothiadiazole derivatives” (UCB Pharma S.A., priority 2011, dated 2015).

Tested on: epilepsy (seizure control)
Settings: Gower A. J. et al., Eur. J. Pharmacol. (1992), 222, 193-203

## CC[C@H](C(N)=O)N1CCCC1=O [(R)-α-ethyl-2-oxo-1-pyrrolidine acetamide]
  activity in the treatment of epilepsy (seizure control): completely lacks activity
